This is an account of results in patent US9522910B2, “Protein kinase inhibitors (variants), use thereof in treating oncological diseases and a pharmaceutical composition based thereon” (Obshchestvo s ogranichennoy otvetstvennostyou “Fusion …, priority 2011, dated 2016).

Test [1] concerns the target Abl (T315I) (Homo sapiens (Human), UniProt P00519, T315I). Briefly: Kinase inhibition assay (33P transfer to plate-bound substrate), Abl (T315I). Particulars: compound concentration that causes 2-times reduction of kinase enzymatic activity. It counts as biochemical. The source says: (§1) Kinases as either kinase domain or full construct fused to glutathione S-transferase (GST) or poly-Histidine tagged fusion proteins were expressed in baculovrius-infected insect cells (e.g. Sf21) or in E. Coli. They are purified to near homogeneity by affinity chromatography as previously described (Lehr et al., Production, purification and characterization of non-myristylated human T-cell protein tyrosine kinase in a baculovirus expression system, Gene, 1996; 169(2), 275-279; Gish et al., Bacterial expression, purification and preliminary kinetic description of the kinase domain of v-fps, Protein Eng. 8, 6, 609-614). In some instances, kinases are co-expressed or mixed with purified or partially purified regulatory polypeptides prior to measurement of activity.
(§2) Kinase activity and inhibition was measured by established protocols (see e.g. Braunwalder et al., A Solid-Phase Assay for the Determination of Protein Tyrosine Kinase Activity of c-src Using Scintillating Microtitration Plates, Anal Biochem. 234, 1, 23-26). In such cases, the transfer of ^33PO4 from ATP to the synthetic substrates poly(Glu, Tyr) 4:1 or poly(Arg, Ser) 3:1 attached to the bioactive surface of microtiter plates is taken as a measure of enzyme activity. After an incubation period, the amount of phosphate transferred is measured by first washing the plate with 0.5% phosphoric acid, adding liquid scintillant, and then counting in a liquid scintillation detector. The IC50 is determined by the concentration of compound that causes a 50% reduction in the amount of ^33P incorporated onto the substrate bound to the plate.

The test system of test [2] is K562 human chronic myelogenous leukemia cells. Briefly: Antiproliferative activity on K562 cells (MTT). It counts as cell-based. Conditions: K562, 72 h, compound concentration that causes 2-times reduction of viable cells, 3 days. On the procedure: Moreover, antiproliferative activity of the compounds of the present invention can be studied on K562 human chronic myelogenous leukemia cells.
Human myelogenous leukemia K562 cells K562 were cultivated in RPMI 1640 growth medium. K562 cells were transferred to 96-well plated in duplicated (final concentration 2×10^4 cells/ml) and testing compound solution in growth medium was added at different concentrations (final volume is 100 μl per well). Solid compounds were first dissolved in DMSO, then the solution was diluted with DMSO to necessary concentration, mixed with equal volume of growth medium and was transferred to cell plates. The final compound concentrations of compounds was 0.5 nM to 10 μM. DMSO at same percentage is used as control. After compound was incubated with cells for 3 days, the numbers of active cells are measured. It was achieved by removing old medium, addition of 100 μl of fresh medium and 20 μl MIT solution containing 5 mg/ml PBS. Plates was incubated for 2 h at 37° C., then 100 μl DMSO was added at each well and stirred for 1 min. Then the absorbance was measured at 570 nm and percent of proliferation inhibition related to the control (without testing compounds) was determined.

Test [3] concerns the target Abl (Homo sapiens (Human), UniProt P00519). Briefly: Kinase inhibition assay (33P transfer to plate-bound substrate), Abl. The format is biochemical. Particulars: compound concentration that causes 2-times reduction of kinase enzymatic activity.
Source text: as §1, §2

Test [4] relates to Ba/F3 cells expressing either native or mutant (T315I) Bcr-Abl kinase. Briefly: Animal model of chronic myelogenous leukemia (Ba/F3 Bcr-Abl tumors in nude balb/c mice). The format is in vivo, mouse. Particulars: 30 mg/kg, oral gavage once daily, 10 days; ratio of mean tumor volume in therapeutic and control groups. On the procedure: Ba/F3 cells expressing either native or mutant (T315I) Bcr-Abl kinase, were inoculated in the right flank of nude balb/c mouse (100 μl of cell suspension in serum-free medium, 3×10^6 cells/ml). Mice were randomly assigned to the groups upon tumor volume of ˜500 mm^3. Once daily vehicle (0.5% methylcellulose I in water) was given using oral gavage to the control group, and substance suspension was given to therapeutic group during 10 days. In a typical experiment malignant cells (e.g., K562 cells, or Ba/F3 cells, expressing native of mutated Bcr-Abl kinase) are injected to mouse with reduced immunity (e.g. nude or SCID mice). Tumor volume (mm^3) was calculated as follows: V=L×W^2×0.5, where L—tumor length in mm, W—width in mm. Ratio of the mean tumor volume in therapeutic and control groups (% T/C) was used to evaluate efficacy of tumor growth inhibition. Obtained data was subjected to statistical reliability Dunnet test. Efficacies of tested compounds in 30 mg/kg dose are depicted in Table 2.

The test system of test [5] is MV4-11 cells. Briefly: Animal model of acute myelogenous leukemia (MV4-11 tumors in SCID mice). It counts as in vivo, mouse. Conditions: 30 mg/kg; end of the therapy (20 days); ratio of mean tumor volume in therapeutic and control groups. On the procedure:
MV4-11 cells (1×10^7 in serum-free medium) were subcutaneously injected in right flank of SCID female mice. When tumor volume achieved ˜200 mm^3 mice were separated into two groups: control and therapeutic. Control group mice received 0.3 ml of 0.5% methylcellulose solution, therapeutic group received 0.3 ml of 0.5% methylcellulose with suspended therapeutic compound. Tumor volume (mm^3) was calculated as follows: V=L×W^2×0.5, where L—tumor length in mm, W—width in mm. Ratio of the mean tumor volume in therapeutic and control groups (% T/C) on the end of the therapy (20 days) was used to evaluate efficacy of tumor growth inhibition. Obtained data was subjected to statistical reliability Dunnet test. Efficacies of tested compounds in 30 mg/kg dose are depicted in Table 3.

Test [6] deals with HCT116 cells. Briefly: Animal model of solid intestine tumors (HCT116 tumors in SCID mice). The format is in vivo, mouse. Particulars: 30 mg/kg; end of the therapy (20 days); ratio of mean tumor volume in therapeutic and control groups. On the procedure: 200 μl of HCT116 cells (2.5×10^7 cells/ml) were subcutaneously injected in right flank of SCID mice. When tumor volume achieved ˜200 mm^3 mice were randomized and separated into two groups: control and therapeutic. Control group mice received 0.3 ml of 0.5% methylcellulose solution, therapeutic group received 0.5% methylcellulose with suspended therapeutic compound (30 mg/kg). Twice a week animals animal weight, toxic effects and tumor volume were measured. Experiment was stopped upon tumor reached volume of 1200 mm3 of when animal lost 10% of body weight, or 20% of body weight upon 2 consecutive weightings. Ratio of the mean tumor volume in therapeutic and control groups (% T/C) was used to evaluate efficacy of tumor growth inhibition upon the end of the therapy (20 days). Obtained data was subjected to statistical reliability Dunnet test. Efficacies of tested compounds in 30 mg/kg dose are depicted in Table 4.

Test [7] has as its system A549 cells. Briefly: Animal model of non-small cell lung cancer (A549 tumors in nude mice). It counts as in vivo, mouse. Particulars: 30 mg/kg, oral gavage; end of the therapy (20 days); ratio of mean tumor volume in therapeutic and control groups. On the procedure:
Male nude mice were used for this experiment. A549 cells (1×10^7) in 0.2 ml of Matrigel (BD Pharmingen) solution were injected in left mice leg upon ketamine-xylazine anesthesia. After a week of cell inoculation mice were separated into control and therapeutic groups. Control group mice received 0.3 ml of 0.5% methylcellulose solution, therapeutic group received 0.3 ml of 0.5% methylcellulose with suspended therapeutic compound (30 mg/kg). Tumor volume (mm^3) was calculated as follows: V=L×W^2×0.5. Compounds were administered using oral gavage. Treatment continued for 20 days. Ratio of the mean tumor volume in therapeutic and control groups (% T/C) was used to evaluate efficacy of tumor growth inhibition upon the end of the therapy (20 days). Obtained data was subjected to statistical reliability Dunnet test. Efficacies of tested compounds in 30 mg/kg dose are depicted in Table 5.

A value given as a limit tells only on which side of the number the result lay.

By IC50 is commonly meant the concentration that inhibits the measured activity by half. Low values mean greater potency, high ones weaker potency. Regarding `Cc1ccc(C(=O)Nc2ccc(CN3CCN(C)CC3)c(C(F)(F)F)c2)cc1C#Cc1nnc2cc(C(=O)O)ccn12`, the IC50 was < 20 nM in test [1], < 100 nM in test [2] and < 20 nM in test [3].
On to `Cc1ccc(C(=O)Nc2ccc(CN3CCN(C)CC3)c(C(F)(F)F)c2)cc1C#Cc1nnc2cc(C(N)=O)ccn12`, for which the IC50 is < 20 nM in test [1], < 100 nM in test [2] and < 20 nM in test [3].
For `Cc1ccc(C(=O)Nc2ccc(CN3CCN(C)CC3)c(C(F)(F)F)c2)cc1C#Cc1nnc2cccnn12`, the results for the IC50 in test [1], in test [2] and in test [3] were < 20 nM, < 100 nM and < 20 nM, respectively.
For the compound `Cc1ccc(C(=O)Nc2ccc(CN3CCN(C)CC3)c(C(F)(F)F)c2)cc1C#Cc1nnc2cc(C(=O)O)cnn12`, the IC50 is < 20 nM in test [1], < 100 nM in test [2] and < 20 nM in test [3].
For the compound `Cc1ccc(C(=O)Nc2ccc(CN3CCN(C)CC3)c(C(F)(F)F)c2)cc1C#Cn1cnc2cc(C(=O)O)ccc21`, the IC50 is < 20 nM in test [1], < 100 nM in test [2] and < 20 nM in test [3].
Take `CN1CCN(Cc2ccc(NC(=O)c3ccc(F)c(C#Cc4nnc5ccccn45)c3)cc2C(F)(F)F)CC1`: the IC50 in test [1] is < 20 nM; in test [2] it was < 100 nM; in test [3], < 20 nM.
For `Cc1ccc(C(=O)Nc2ccc(CN3CCN(C)CC3)c(C(F)(F)F)c2)cc1C#Cc1nnc2ccccn12` [drawing 113], the results for the IC50 in test [1], in test [2] and in test [3] were < 20 nM, < 100 nM and < 20 nM, respectively.
As to `Cc1ccc(C(=O)Nc2ccc(CN3CCN(C)CC3)c(C(F)(F)F)c2)cc1C#Cc1nnc2ccccn12` [drawing 121], in test [4], the “% T/C” value is <40%.
Same read-out and setting: with `Cc1ccc(C(=O)Nc2ccc(CN3CCN(C)CC3)c(C(F)(F)F)c2)cc1C#Cc1nnc2cccc(Cl)n12` [drawing 122] the figure was <40%; with `Cc1ccc(C(=O)Nc2ccc(CN3CC[C@@H](N(C)C)C3)c(C(F)(F)F)c2)cc1C#Cn1cnc2ccccc21` [drawing 123], <40%.
Same read-out and setting: with `Cc1ccc(C(=O)Nc2ccc(CN3CC[C@@H](N(C)C)C3)c(C(F)(F)F)n2)cc1C#Cn1cnc2ccccc21` [drawing 124] the figure was <40%; with `Cc1ccc(C(=O)Nc2ccc(CN3CCN(C)CC3)c(C(F)(F)F)c2)cc1C#Cc1nnc2cc(F)ccn12` [drawing 125], <40%.
The same measure, in the same setting: to `Cc1ccc2nnc(C#Cc3cc(C(=O)Nc4ccc(CN5CCN(C)CC5)c(C(F)(F)F)c4)ccc3C)n2n1` [drawing 126] belongs <40%.
With `Cc1ccc(C(=O)Nc2ccc(CN3CCN(C)CC3)c(C(F)(F)F)c2)cc1C#Cc1nnc2ccccn12` [drawing 127], the “% T/C” value in test [5] is <40%.
Same read-out and setting: with `Cc1ccc(C(=O)Nc2ccc(CN3CCN(C)CC3)c(C(F)(F)F)c2)cc1C#Cc1nnc2cccc(Cl)n12` [drawing 128] the figure was <40%; with `Cc1ccc(C(=O)Nc2ccc(CN3CC[C@@H](N(C)C)C3)c(C(F)(F)F)c2)cc1C#Cn1cnc2ccccc21` [drawing 129], <40%.
Same read-out and setting: to `Cc1ccc(C(=O)Nc2ccc(CN3CC[C@@H](N(C)C)C3)c(C(F)(F)F)n2)cc1C#Cn1cnc2ccccc21` [drawing 130] belongs <40%.
Still for that read-out and setting: to `Cc1ccc(C(=O)Nc2ccc(CN3CCN(C)CC3)c(C(F)(F)F)c2)cc1C#Cc1nnc2cc(F)ccn12` [drawing 131] belongs <40%; to `Cc1ccc2nnc(C#Cc3cc(C(=O)Nc4ccc(CN5CCN(C)CC5)c(C(F)(F)F)c4)ccc3C)n2n1` [drawing 132], <40%.
Turning to `Cc1ccc(C(=O)Nc2ccc(CN3CCN(C)CC3)c(C(F)(F)F)c2)cc1C#Cc1nnc2ccccn12` [drawing 133], the “% T/C” value in test [6] is given as <40%.
Same read-out and setting: to `Cc1ccc(C(=O)Nc2ccc(CN3CCN(C)CC3)c(C(F)(F)F)c2)cc1C#Cc1nnc2cccc(Cl)n12` [drawing 134] belongs <40%; to `Cc1ccc(C(=O)Nc2ccc(CN3CC[C@@H](N(C)C)C3)c(C(F)(F)F)c2)cc1C#Cn1cnc2ccccc21` [drawing 135], <40%.
As to `Cc1ccc(C(=O)Nc2ccc(CN3CC[C@@H](N(C)C)C3)c(C(F)(F)F)n2)cc1C#Cn1cnc2ccccc21` [drawing 136], the “% T/C” value in test [6] is reported as <40%.
Same read-out and setting: with `Cc1ccc(C(=O)Nc2ccc(CN3CCN(C)CC3)c(C(F)(F)F)c2)cc1C#Cc1nnc2cc(F)ccn12` [drawing 137] the figure was <40%.
Same read-out and setting: with `Cc1ccc2nnc(C#Cc3cc(C(=O)Nc4ccc(CN5CCN(C)CC5)c(C(F)(F)F)c4)ccc3C)n2n1` [drawing 138] the figure was <40%.
`Cc1ccc(C(=O)Nc2ccc(CN3CCN(C)CC3)c(C(F)(F)F)c2)cc1C#Cc1nnc2ccccn12` [drawing 139]: the “% T/C” value in test [7] is <40%.
On the same count and under the same terms, to `Cc1ccc(C(=O)Nc2ccc(CN3CCN(C)CC3)c(C(F)(F)F)c2)cc1C#Cc1nnc2cccc(Cl)n12` [drawing 140] belongs <40%; to `Cc1ccc(C(=O)Nc2ccc(CN3CC[C@@H](N(C)C)C3)c(C(F)(F)F)c2)cc1C#Cn1cnc2ccccc21` [drawing 141], <40%.
Still for that read-out and setting: to `Cc1ccc(C(=O)Nc2ccc(CN3CC[C@@H](N(C)C)C3)c(C(F)(F)F)n2)cc1C#Cn1cnc2ccccc21` [drawing 142] belongs <40%; to `Cc1ccc(C(=O)Nc2ccc(CN3CCN(C)CC3)c(C(F)(F)F)c2)cc1C#Cc1nnc2cc(F)ccn12` [drawing 143], <40%.
